Measurements from patent publication US11993576B2, “N-benzyl-N-arylsulfonamide derivative and preparation and use thereof” (Hangzhou Yirui Pharmaceutical Technology Co., Ltd, priority 2019, dated 2024).

How the values were obtained:
human Kv1.3 [1] = biological target: T1, human Kv1.3 (Homo sapiens, UniProt P22001); test: IonWorks automated patch clamp assay of inhibitory activity against Kv1.3; format: cell-based; details: automated patch clamp method; CHO-K1 cells stably expressing human Kv1.3
T1 sequence (P22001 whole entry): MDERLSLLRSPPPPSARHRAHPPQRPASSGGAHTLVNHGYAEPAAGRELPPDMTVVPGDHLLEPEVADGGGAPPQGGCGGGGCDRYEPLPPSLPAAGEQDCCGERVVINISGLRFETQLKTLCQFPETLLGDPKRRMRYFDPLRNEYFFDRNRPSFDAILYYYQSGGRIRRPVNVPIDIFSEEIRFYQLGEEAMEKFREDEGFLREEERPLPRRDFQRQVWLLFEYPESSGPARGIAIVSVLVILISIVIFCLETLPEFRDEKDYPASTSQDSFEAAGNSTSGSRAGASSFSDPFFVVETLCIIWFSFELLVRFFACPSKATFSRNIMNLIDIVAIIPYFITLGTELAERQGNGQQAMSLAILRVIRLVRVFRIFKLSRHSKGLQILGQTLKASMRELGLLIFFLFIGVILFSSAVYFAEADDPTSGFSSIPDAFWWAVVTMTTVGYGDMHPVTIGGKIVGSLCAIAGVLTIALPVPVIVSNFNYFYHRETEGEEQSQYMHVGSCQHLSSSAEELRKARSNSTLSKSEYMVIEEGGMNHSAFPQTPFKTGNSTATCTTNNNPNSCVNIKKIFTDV
How it was run: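 CHO-K1 cells stably expressing human Kv1.3, perforated-patch IonWorks Quattro (amphotericin B 200 μg/mL internal), external solution pH 7.3. Compounds 0.00384-30 μM final, 0.3% DMSO, 600 s incubation; four 1 s pulses to 0 mV from −80 mV. Inhibition from peak current ratio after/before compound.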

human Kv1.3 [2] = biological target: T1, human Kv1.3; test: Conventional patch clamp assay of inhibitory activity against Kv1.3; format: cell-based; details: conventional patch-clamp method; CHO-K1 cells stably expressing human Kv1.3
Text: II. Conventional Patch Clamp Assay of Inhibitory Activity Against Kv1.3
In order to compare the influence of different assay methods on the inhibitory activity of a compound, the conventional patch clamp method was used to assay the inhibitory activities of compounds 21, 37, 44, 61 against Kv1.3. The principle and method for the conventional patch clamp method can be found in Grissmer et al. [Grissmer et al. Molecular Pharmacology 1994, 45:1227-1234].
(§1) Inhibitory activity of the compounds against Kv1.3 was assessed using a CHO-K1 recombinant cell line stably expressing human Kv1.3 (Charles River, California). The cells were cultured in an F-12K culture medium containing 5% calf serum (Invitrogen, Carlsbad.ca) in an incubator at 37° C. and under air humidity with 6% CO2.
(§2) During the experiment, adherent cells were placed in a recording chamber under an inverted microscope. All the experiments were performed at room temperature. Each of the cells used itself as the control.
(§3) The test compounds were formulated to their final concentrations on the day of assay, and then dissolved in an extracellular fluid. The extracellular fluid (mM) was: NaCl, 137; KCl, 4; CaCl2, 1.8; MgCl2, 1; HEPES, 10; glucose 10; pH 7.4 (NaOH titration). All the solutions of the test compounds and the control compounds contained 0.3% of DMSO.
(§4) Each of the compounds was perfused by a gravity-driven perfusion system. At least two cells were tested for each of the concentrations of a compound. After the current was stable, the blocking effect of the compounds was calculated by comparing the change in the current before and after administration of the compounds. 1000 μM 4-AP was used as a positive control.
(§5) The cells were transferred to a perfusion chamber, and were perfused with the extracellular fluid. Intracellular fluid (mM): K-aspartate, 130; MgCl2, 5; EGTA 5; HEPES, 10; pH 7.2 (KOH titration). The intracellular fluid was stored in a small amount in a refrigerator at −80° C. in batches, and was thawed on the day of the experiment. The electrodes were drawn by PC-10 (Narishige, Japan). A whole-cell patch-clamp recording was performed, with the noise being filtered by one-fifth of the sampling frequency.
(§6) The cells were clamped at −80 mV and then depolarized to 0 mV with square waves lasting for 2 seconds to obtain a Kv1.3 current. This process was repeated every 20 seconds. The maximum current elicited by the square waves was detected. After the maximum current became stable, the test compounds were perfused. After the reaction was stable, the blocking strength was calculated.
Data was collected and analyzed using pCLAMP 10 (Molecular Devices, Union City, CA). A stable current meant a current which varies within a limited range over time. […]

human Kv1.5 = human Kv1.5 (Homo sapiens, UniProt P22460); test: Conventional patch clamp assay of inhibitory activity against Kv1.5; format: cell-based; details: conventional patch-clamp method; CHO-K1 cells stably expressing human Kv1.5
human Kv1.5, sequence (P22460 whole entry): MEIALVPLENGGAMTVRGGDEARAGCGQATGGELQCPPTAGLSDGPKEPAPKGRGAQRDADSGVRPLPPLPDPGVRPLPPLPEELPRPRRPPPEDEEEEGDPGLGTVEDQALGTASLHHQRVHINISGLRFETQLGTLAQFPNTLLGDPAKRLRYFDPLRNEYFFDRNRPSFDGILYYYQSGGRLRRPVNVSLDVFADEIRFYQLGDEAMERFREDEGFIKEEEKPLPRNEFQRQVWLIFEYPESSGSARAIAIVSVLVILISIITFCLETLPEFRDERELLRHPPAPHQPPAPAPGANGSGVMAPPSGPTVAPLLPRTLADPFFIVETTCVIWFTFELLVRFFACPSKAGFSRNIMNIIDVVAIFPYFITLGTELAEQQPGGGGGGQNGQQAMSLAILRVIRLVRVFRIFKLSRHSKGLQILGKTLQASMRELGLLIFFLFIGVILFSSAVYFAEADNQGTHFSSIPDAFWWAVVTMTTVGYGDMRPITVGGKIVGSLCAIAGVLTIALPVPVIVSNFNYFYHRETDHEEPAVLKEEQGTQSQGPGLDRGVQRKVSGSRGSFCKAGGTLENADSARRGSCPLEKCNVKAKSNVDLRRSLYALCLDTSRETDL
Procedure: III. Conventional Patch Clamp Assay of Inhibitory Activity Against Kv1.5
The principle and method for the conventional patch clamp method can be found in Grissmer et al. [Grissmer et al. Molecular Pharmacology 1994, 45:1227-1234].
as §1, with “a” for “the”, “Kv1.5” for “Kv1.3”, “Calif.).” for “California).”
as §2, §3
as §4, with “compounds.” for “compounds. 1000 μM 4-AP was used as a positive control.”
1000 μM 4-AP was used as a positive control.
as §5
as §6, with “to 20” for “to 0”, “a Kv1.5” for “a Kv1.3”
Data was collected and analyzed using pCLAMP 10 (Molecular Devices, Union City, CA). A stable current meant a current which varies within a limited range over time. The value of the stable current was used to calculate the effect of a compound at this […].

[3] = tested on: SCID mouse psoriasis xenograft model; details: injection or topical skin application; cited from earlier work
[4] = tested on: allergic contact dermatitis; details: applied topically, rat; cited from earlier work
[5] = tested on: rat model of autoimmune glomerular basal membrane nephritis; details: intraperitoneal injection; cited from earlier work
EAE = details: in vivo; cited from earlier work
[6] = tested on: Th2 TEM cells with highly expressed Kv1.3; details: ovalbumin-induced asthma, rat; cited from earlier work

IC50 (human Kv1.3 [1]) [nM] | IC50 (human Kv1.3 [2]) [nM] | IC50 (human Kv1.5) [nM] | Compound | further results
97 | 141 | 2820 | CCCS(=O)(=O)N(Cc1ccc(F)cc1)c1ccc(N2CCN(C(=O)N(C)C)CC2)c(C#N)c1 [Compound 21, 4-(2-cyano-4-(N-(4-fluorobenzyl)propyl)phenyl)-N,N-dimethylpiperazin-1-formamide] | –
– | – | – | O=c1ccc2c(OCCCCOc3ccccc3)c3ccoc3cc2o1 [PAP-1] | reduction of infiltrated CD3+ lymphocytes [3]: 85%; reduction of thickness of pathological epidermal hyperplasia [3]: approximately 50%; allergic contact dermatitis [4]: can effectively inhibit allergic contact dermatitis
92 | 130 | 2110 | CCCS(=O)(=O)N(Cc1ccccc1)c1ccc(N2CCN(C(=O)OCC)CC2=O)c(C#N)c1 [Compound 61, ethyl 4-(4-(N-benzylpropanesulfonamido)2-cyanophenyl)-3-oxopiperazin-1-formate] | –
– | – | – | O=c1ccc2c(OCCCCc3ccccc3)c3ccoc3cc2o1 [Psora-4] | proteinuria and crescentic glomeruli [5]: can significantly decrease proteinuria and crescentic glomeruli
96 | 111 | 7900 | CCCS(=O)(=O)N(Cc1ccc(Cl)cc1)c1ccc(N2CCN(S(=O)(=O)N(C)C)CC2)c(C#N)c1 [Compound 44, 4-(4-(N-(4-chlorobenzyl)propanesulfonamido)-2-cyanophenyl)-N,N-dimethylpiperazin-1-sulfonamide] | –
– | – | – | SHK-186 | inductive occurrence of EAE (EAE): can resist inductive occurrence of EAE; production of IFN-γ and IL-17 (EAE): inhibit production of IFN-γ and IL-17; proliferation of Th2 TEM cells and production of cytokines [6]: can effectively inhibit proliferation of Th2 TEM cells with highly expressed Kv1.3 and production of cytokines
